Results published in ChEMBL document CHEMBL1201862, “PubChem BioAssay data set” (2004).
The source made the active and inactive calls. Cut-off read from the data, not from the text of the source, for most assays here: actives have a measured EC50 and inactives only a lower limit.

Key:
[1] = molecular target: T1, Rac GTPase-activating protein 1 (Homo sapiens, UniProt Q9H0H5); assay: blockers of MgcRacGAP-driven Rac1 GTP hydrolysis – biochemical, ADP Hunter fluorescence, primary and confirmatory, confirmation (AID 624330); assay type: functional
T1 sequence (Q9H0H5 whole entry): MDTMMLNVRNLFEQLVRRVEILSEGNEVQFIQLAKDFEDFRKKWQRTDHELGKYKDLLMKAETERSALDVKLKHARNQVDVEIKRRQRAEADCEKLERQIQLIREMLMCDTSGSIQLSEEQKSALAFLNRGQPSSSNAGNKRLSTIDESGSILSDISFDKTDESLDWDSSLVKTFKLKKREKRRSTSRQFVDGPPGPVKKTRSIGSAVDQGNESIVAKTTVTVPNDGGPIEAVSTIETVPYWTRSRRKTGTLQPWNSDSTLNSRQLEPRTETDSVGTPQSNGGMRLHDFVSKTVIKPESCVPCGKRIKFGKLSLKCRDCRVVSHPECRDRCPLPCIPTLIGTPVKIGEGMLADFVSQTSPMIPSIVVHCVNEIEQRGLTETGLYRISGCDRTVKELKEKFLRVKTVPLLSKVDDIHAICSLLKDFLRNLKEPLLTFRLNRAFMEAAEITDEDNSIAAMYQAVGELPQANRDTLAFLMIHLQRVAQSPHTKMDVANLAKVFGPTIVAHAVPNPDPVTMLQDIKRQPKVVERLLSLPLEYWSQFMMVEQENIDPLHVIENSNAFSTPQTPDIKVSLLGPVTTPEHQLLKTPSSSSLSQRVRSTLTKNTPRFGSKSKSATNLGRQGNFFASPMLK

[2] = Luminescence Cell-Based Dose Response HTS to Identify Inhibitors of 5'UTR Stem-Loop Driven Prion Protein mRNA Translation in H4 Neuroglioblastoma Cells. [Related pubchem assays: 1827 (Project Summary), 1813 (Primary HTS)]; assay type: functional
[3] = luciferase reporter signal suppression in cells – H4 neuroglioma cells, luminescence, dose response (AID 1990); assay type: functional, cell-based
[4] = alpha-synuclein stem-loop luciferase translation blockers – H4 neuroglioma cells, luminescence, confirmation (AID 1988); assay type: functional, cell-based
[5] = viability of uninfected HEp-2 cells – cell-based, HTS, cytotoxicity control for RSV inhibitor project, dose response (AID 2410); assay type: functional; conditions: human respiratory syncytial virus
[6] = Luminescence Cell-Based Dose Retest to Confirm Inhibitors of Cancer Stem Cells. [Related pubchem assays (depositor defined):AID2717, AID2721]; assay type: functional; conditions: Homo sapiens
Streptococcus = assay: GAS UMAA2166 growth inhibition – luminescence, BacTiterGlo, counter-screen for streptokinase expression inhibitor project, dose response (AID 1915); assay type: functional, organism-based;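 note: potency for reduction of bacterial viability or growth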
[7] = tested on: Streptococcus sp. 'group A'; assay: Streptococcus pyogenes SK(-)GAS viability under kanamycin – luminescence, BacTiterGlo, confirmation, counter-screen for streptokinase expression inhibitor project, dose response (AID 1900); assay type: functional, organism-based
[8] = NIH3T3 cell viability loss – ATP luminescence, mouse fibroblasts, counter-screen, dose response (AID 2010); assay type: functional, cell-based;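 note: cells exposed to compound for about 90 hours before reading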
[9] = Trypanosoma cruzi growth suppression in host cells – NIH3T3 host cells, beta-gal luminescence, confirmation (AID 2044); assay type: functional, cell-based;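 note: intracellular parasites grown in NIH/3T3 mouse fibroblasts as host cells; luminescent beta-galactosidase reporter signal from transgenic T. cruzi replicating inside host cells; inhibitors lower the luminescence signal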
[10] = NIH-3T3 fibroblast cytotoxicity, dose response, cytotoxicity control, cell-based, fluorescence, Alamar Blue, secondary assay (AID 2327); assay type: functional;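 note: NIH-3T3 mouse fibroblasts cultured with fluconazole at 8 µg/mL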
INS1 = assay: INS-1E survival protection against cytokine death – cell-based, luminescence, retest, dose response (AID 449756); assay type: functional; conditions: Rattus norvegicus;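 note: cell death triggered by IL-1 beta plus TNF-alpha plus IFN-gamma mixture; protective hits raise ATP signal compared with cytokine alone wells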
[11] = Luminescence Cell-Based Dose Confirmation HTS to Identify Activators of 5'UTR Stem-Loop Driven Alpha-Synuclein mRNA Translation in H4 Neuroglioblastoma Cells. [Related pubchem assays: 1829 (Project Summary), 1814 (Primary HTS)]; assay type: functional
H9c2 = assay: cells; assay type: functional, cell-based; conditions: Rattus norvegicus, H9c2, Myocardium;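 note: confirmatory concentration-response retest of ultra-high-throughput screening hits for modulation of myocardial damage; cell death induced by hydrogen peroxide oxidative stress; compound pretreatment for 60 min then peroxide exposure for 2 h; potency is for protecting the cells against peroxide damage rather than for killing them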
H4 = assay: Luminescence Cell-Based Dose Response HTS to Identify Activators of 5'UTR Stem-Loop Driven Prion Protein mRNA Translation in H4 Neuroglioblastoma Cells. [Related pubchem assays: 1829 (Project Summary), 1814 (Primary HTS)]; assay type: functional; conditions: Homo sapiens
[12] = Luminescence Cell-Based Dose Response HTS to Identify Activators of Luciferase Translation or Activity in H4 […] Cells. [Related pubchem assays: 1829 (Project Summary), 1814 (Primary HTS)]; assay type: functional
[13] = molecular target: T2, Replicative DNA helicase DnaB (Mycobacterium tuberculosis, UniProt P9WMR3); assay: DnaB intein splicing inhibitors, dose response, biochemical, cell-free fluorescence (AID 449749); assay type: functional
T2 sequence (P9WMR3 whole entry): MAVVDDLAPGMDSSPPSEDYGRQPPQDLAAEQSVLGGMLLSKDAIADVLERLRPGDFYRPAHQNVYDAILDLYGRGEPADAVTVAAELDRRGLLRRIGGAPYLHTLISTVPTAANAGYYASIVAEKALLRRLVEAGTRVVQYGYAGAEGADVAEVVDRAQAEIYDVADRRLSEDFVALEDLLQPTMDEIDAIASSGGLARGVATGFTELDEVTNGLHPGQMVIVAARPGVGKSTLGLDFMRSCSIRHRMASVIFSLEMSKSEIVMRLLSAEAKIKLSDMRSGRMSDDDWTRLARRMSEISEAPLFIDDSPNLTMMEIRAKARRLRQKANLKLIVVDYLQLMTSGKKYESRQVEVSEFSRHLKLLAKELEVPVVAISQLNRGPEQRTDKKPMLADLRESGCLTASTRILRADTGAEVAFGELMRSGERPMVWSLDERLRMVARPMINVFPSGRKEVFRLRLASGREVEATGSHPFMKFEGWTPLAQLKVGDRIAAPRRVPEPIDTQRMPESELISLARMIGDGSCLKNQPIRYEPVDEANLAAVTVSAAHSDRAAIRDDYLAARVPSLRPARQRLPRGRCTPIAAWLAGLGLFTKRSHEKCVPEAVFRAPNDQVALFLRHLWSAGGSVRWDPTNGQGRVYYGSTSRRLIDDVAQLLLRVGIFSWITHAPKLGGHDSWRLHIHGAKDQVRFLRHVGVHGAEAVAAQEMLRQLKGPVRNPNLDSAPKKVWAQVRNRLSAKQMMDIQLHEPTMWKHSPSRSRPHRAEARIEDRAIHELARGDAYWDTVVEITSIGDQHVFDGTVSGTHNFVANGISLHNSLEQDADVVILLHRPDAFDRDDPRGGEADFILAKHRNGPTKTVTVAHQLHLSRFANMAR

Protein RecA = molecular target: T3, Protein RecA (Mycobacterium tuberculosis, UniProt P9WHJ3); assay: Fluorescence Cell-Free Homogeneous Dose Retest to Identify Inhibitors of RecA-Intein Splicing Activity. [Related pubchem assays (depositor defined):AID2097, AID2223, AID489010, AID492950]; assay type: functional
T3 sequence (P9WHJ3 whole entry): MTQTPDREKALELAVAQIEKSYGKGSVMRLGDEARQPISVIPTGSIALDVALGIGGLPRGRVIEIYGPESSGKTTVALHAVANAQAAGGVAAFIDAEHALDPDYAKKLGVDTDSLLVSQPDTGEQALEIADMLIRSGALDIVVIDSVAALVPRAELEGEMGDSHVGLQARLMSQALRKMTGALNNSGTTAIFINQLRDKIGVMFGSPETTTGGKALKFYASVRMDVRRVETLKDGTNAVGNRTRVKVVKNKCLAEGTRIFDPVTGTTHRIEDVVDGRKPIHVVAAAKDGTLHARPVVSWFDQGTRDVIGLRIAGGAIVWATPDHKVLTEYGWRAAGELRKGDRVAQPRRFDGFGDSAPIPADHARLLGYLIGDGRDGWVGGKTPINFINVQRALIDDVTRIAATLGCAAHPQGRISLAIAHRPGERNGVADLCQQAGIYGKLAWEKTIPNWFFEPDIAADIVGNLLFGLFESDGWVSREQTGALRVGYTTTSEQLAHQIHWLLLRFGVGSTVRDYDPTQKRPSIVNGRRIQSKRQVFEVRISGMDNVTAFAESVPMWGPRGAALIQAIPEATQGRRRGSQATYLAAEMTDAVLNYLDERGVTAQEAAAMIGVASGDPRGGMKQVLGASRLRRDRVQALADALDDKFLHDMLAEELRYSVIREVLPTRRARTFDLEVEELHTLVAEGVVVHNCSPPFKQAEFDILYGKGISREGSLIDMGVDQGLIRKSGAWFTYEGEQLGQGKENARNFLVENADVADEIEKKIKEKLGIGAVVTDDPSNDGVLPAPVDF

CC(=O)c1c(C)c(C)c2n1CCn1c(C)ccc1-2
IC50 [1]: 29 µM (active)

Cc1ccc(NC(=O)CN(C)CC(=O)Nc2ccc(F)c(F)c2F)c(Cl)c1
EC50 [2]: > 120 µM (not active) | EC50 [3]: > 120 µM (not active) | EC50 [4]: > 120 µM (not active)

COC(=O)c1c(NC(=O)CCNCc2ccco2)sc2c1CCC2
IC50 [1]: 138 µM (active)

COc1ccc(-c2nn(-c3ccccc3)cc2/C=C/C(=O)NCCCn2ccnc2)cc1OC
EC50 [2]: > 120 µM (not active) | EC50 [3]: > 120 µM (not active) | EC50 [4]: > 60 µM (not active)

Cc1ccc(C(=O)Nc2nc(C(C)(C)C)cs2)s1
CC50 [5]: 3.25 µM (active)

CCOC(=O)c1cnc2c(OC)cccc2c1N1CCN(c2ccccc2OC)CC1
EC50 [2]: > 120 µM (not active) | EC50 [3]: 11.4 µM (active) | EC50 [4]: 8.6 µM (active)

C[C@@H]1CN([C@H](C)CO)C(=O)Cc2cc(NS(=O)(=O)c3ccc(Cl)cc3)ccc2O[C@H]1CN(C)Cc1ccc(C(F)(F)F)cc1
AC50 [6]: 3.11 µM (active)

CCOc1ccc(C(=O)Nc2ccc(S(=O)(=O)N3C[C@@H]4C[C@@H](C3)c3cccc(=O)n3C4)cc2)cc1
CC50 [5]: 23.7 µM (active)

O=C(NCc1ccc(F)cc1)C(=O)Nc1nc(C23CC4CC(CC(C4)C2)C3)cs1
EC50 (Streptococcus): 2.55 µM (active) | EC50 [7]: 0.823 µM (active) | AC50 [6]: 1.91 µM (active)

CN(C)c1ccc(/C=C2\CCC/C(=C\c3ccccc3)C2=O)cc1
AC50 [6]: 3.81 µM (active)

COc1ccc(CCNC(=O)c2coc(=O)c(Br)c2)cc1
AC50 [6]: 7.39 µM (active)

Cc1nnc(N2CCC(C(=O)N3CCCCCC3)CC2)c2nn(-c3ccc(Cl)cc3)c(C)c12
CC50 [5]: 21.9 µM (active)

C=CCNC(=O)CN1CCN(C(c2ccccc2)c2ccccc2)CC1
IC50 [1]: 168 µM (active)

CCCCCSc1nc(N2CCOCC2)c2c(c1C#N)CC(C)(C)OC2
EC50 [2]: 19.8 µM (active) | EC50 [3]: > 120 µM (not active) | EC50 [4]: > 120 µM (not active)

Nc1n[nH]c(N)c1N=Nc1ccc2c(c1)OCO2
EC50 [8]: > 60 µM (not active) | EC50 [9]: > 60 µM (not active) | IC50 [1]: 30.1 µM (active)

CN(CC(=O)Nc1cccc(F)c1)C(=O)c1ccc(-c2ccc(Cl)cc2)o1
CC50 [5]: 23.1 µM (active)

Cc1c(Cl)cccc1N=C(S)N(Cc1cccs1)C1CCCC1
EC50 [2]: > 120 µM (not active) | EC50 [3]: > 120 µM (not active) | EC50 [4]: > 120 µM (not active)

CC1=C(C(=O)OC2CCCC2)C(c2coc3ccccc3c2=O)C2=C(O)CC(C)(C)CC2=N1 (centres undefined)
AC50 [6]: 97.3 µM (active)

O=C(CN1CCN(S(=O)(=O)c2ccc3ccccc3c2)CC1)N1CCc2ccccc2C1
CC50 [5]: 25.3 µM (active) | EC50 [2]: 23 µM (active) | EC50 [3]: 14.4 µM (active) | EC50 [4]: > 120 µM (not active)

CCOC(=O)c1c(C)oc2ccc(NS(=O)(=O)c3ccc4c5c(cccc35)C(=O)N4)cc12
CC50 [5]: 7.08 µM (active)

O=C(NN1C(=O)NC2(CCCCC2)C1=O)c1ccc(-c2ccc(Cl)cc2)o1
CC50 [5]: 22.3 µM (active)

COc1ccc(C(=O)NNc2ccccc2)cc1OC
EC50 [10]: 7.89 µM (active) | AC50 [6]: 0.825 µM (active)

O=C(CSC1=N/C(=C/c2ccc(Cl)c(Cl)c2)C(=O)N1c1ccccc1F)NC1CC1
CC50 [5]: 24 µM (active)

Cc1cc(SCC(=O)c2cccs2)n2nc(C)c(-c3ccc(Cl)cc3)c2n1
AC50 [6]: 18.1 µM (active)

Cc1cccc2nc(CSc3nc4nncc-4c(O)n3-c3cccc(Cl)c3)cc(=O)n12
AC50 (INS1): 8.23 µM (active)

COc1cc(/C=C/c2nnc3c4ccccc4ncn23)cc(OC)c1OC
EC50 [11]: 8.84 µM (active) | IC50 (H9c2): > 79 µM (inactive) | EC50 (H4): > 120 µM (not active) | EC50 [12]: 29.1 µM (active)

O=C(NCC1COc2ccccc2O1)c1cccc(S(=O)(=O)NCc2ccccc2)c1 (centres undefined)
AC50 (INS1): 8.07 µM (active)

CCOc1cc(C=NNC(=O)c2cccc(S(=O)(=O)N3CCCC3)c2)ccc1O
IC50 [1]: 32.3 µM (active)

COc1nc(N/N=C/c2ccc(-c3ccccc3[N+](=O)[O-])o2)nc(N2CCOCC2)n1
EC50 [11]: 12.4 µM (active) | EC50 (H4): 24.7 µM (active) | AC50 [13]: 16 µM (active) | EC50 [12]: 22.5 µM (active) | EC50 (Protein RecA): 14.4 µM (active)

CC1(C)CC2CC(C)(CN2/C=N/c2sc3c(c2C#N)CC(C)(C)NC3(C)C)C1 (centres undefined)
AC50 [6]: 1.04 µM (active)

CCn1c(C)nc2cc(C(=O)N/N=C/c3ccc(O)cc3)ccc21
IC50 [1]: 66.7 µM (active)

CCCCc1ccc(/C(C)=N/Nc2cc(N3CCOCC3)nc(C)n2)cc1
EC50 [8]: > 60 µM (not active) | EC50 [9]: 2.06 µM (active) | AC50 [6]: 3.08 µM (active)
